Experimental findings from patent US7888357B2, “Anti-inflammatory and protein kinase inhibitor compositions and related methods for downregulation of detrimental cellular responses and inhibition of cell death” (Northwestern University, priority 2001, dated 2011) are described below.

The structures appear in SMILES notation. “Also recorded” adds a separate entry of the source. Where two headings read alike, the source gives them in different places.

Data set [1] has as its target T1, myosin light chain kinase (MLCK) (Gallus gallus, UniProt P11799).
T1 construct: chicken gizzard MLCK prepared as described; from tissue; host or cells: chicken gizzard
Kind of data set: Reconstituted enzyme assay, MLCK. It counts as biochemical, chicken. The protocol:
(§1) [table] […] The rationale for using BV-2 cells in high throughput screening was the paucity of well-characterized human microglial cell lines, and the relevant activation responses and signaling pathways reflect those seen in human and rodent primary microglial cultures. Compounds were tested for their effects on NO accumulation in conditioned media of LPS-stimulated BV-2 cells by measurement of nitrite production by the Griess assay as a read-out for iNOS activity, as described previously. Stock solutions of compounds were prepared in dimethylsulfoxide (DMSO) or in water. When stock solutions were prepared in DMSO, control wells contained the same final concentration of DMSO as the compound-containing wells. […] Solutions of compounds for cell treatments were diluted to a 10× final concentration by dilution of stock solutions in αMEM media. […] Reconstituted enzyme assays were done as described s. The sources of protein kinases were: bovine heart PKA from Promega, rat brain PKC from Calbiochem, rat CaMKII from New England Biolabs, chicken gizzard MLCK prepared as described, and a p38 MAP kinase kit containing recombinant Xenopus p38-MAPK and its human substrate from Upstate Biotechnology. The catalytic domains of these protein kinases retain a high level of amino acid sequence identity across mammalian species, consistent with the lack of documented major differences across species for the in vitro catalytic activity of a given kinase.

A further data set deals with protein kinase C (PKC). Put plainly: Reconstituted enzyme assay, PKC. It counts as biochemical, rat. As to the method:
as §1

The next data set has as its target T2, CaMKII (Rattus norvegicus, UniProt P11275).
T2 construct: purchased New England Biolabs
Kind of data set: Reconstituted enzyme assay, CaMKII. The settings on record: Table 6; read-out: Inhibition CAMKII. It counts as biochemical. As to the method:
as §1

For data set [2], the target named is death associated protein kinase (DAPK) (Homo sapiens, UniProt P53355). Kind of data set: Enzyme assay, DAPK. The class given is biochemical. The settings on record: for IC50: Table 6, read-out: Inhibition DAPK. As to the method:
Therefore, compound MW01-026Z was selected as a starting point for variations on component A (Table 6). […] However, none of the A variations appeared to improve the activity and selectivity profile of CompoundMW01-026Z. (For purposes of illustration, only, component G was maintained throughout as an acyl moiety, while component R2 was varied as shown. All such compositions are available using the synthetic techniques described herein. Enzyme assays were conducted per procedures described elsewhere herein.) A more comprehensive structure activity relationship is summarized in Table 7, below.
With reference to the compositions of Table 3 and the enzyme assay techniques described elsewhere herein, Table 7 provides structural activity relationships observed, in accordance with this invention.

For a further data set, the system named is Wistar rats at P7. Put plainly: Hypoxia-ischemia induced brain damage, hemispheric weight. It counts as in vivo. The text has this: Induction of hypoxia-ischemia in postnatal day seven (P7) rats. Hypoxic-ischemic injury in P7 rats was induced using the well-characterized method of unilateral carotid ligation followed by hypoxia. This age is approximately equivalent to the 34 week gestation human infant. Male and female Wistar rats at P7 were removed from the mother and anesthetized with halothane (3.5% for induction and 1.5% for maintenance) 50% oxygen-balance nitrogen delivered via facemask. The right common carotid artery was identified and gently separated from the vagus nerve. The vessel was ligated with double 6-0 silk sutures to ensure cessation of blood flow. […]
Animals were sacrificed by halothane overdose at 7 days after hypoxia. […] Differences in weight between the hypoxic-ischemic and control contralateral hemisphere were calculated for each animal using the formula: 100*(C−I)/C=% damage where I represents the weight of the ipsilateral and C the weight of the contralateral hemisphere.
Data Analysis. All data are expressed as mean±SEM. The degree of hypoxic-ischemic brain injury after treatment with drug or saline is expressed as the percentage of reduction in the tissue weight of the hemisphere ipsilateral to carotid ligation. This was calculated as a ratio of the right (ipsilateral, ischemic) to the left (contralateral, non-ischemic) hemispheric weights as described previously in the literature. […]

In the next data set the test system is WT mice. Kind of data set: Endotoxin (LPS)-mediated acute lung injury. The class given is in vivo, mouse. Particulars: 2.5 mg/kg IP 1 hour prior to LPS 10 mg/kg IP; 24 hours. As to the method:
To confirm the specific role of EC MLCK in the reduced susceptibility of KO mice to endotoxin-mediated lung injury, a representative composition of this invention was used to determine whether pharmacologic inhibition of MLCK would also reduce LPS-induced lung injury. (See, examples 25-26, below.) WT mice were treated with 2.5 mg/kg of a representative MLCK inhibitor (e.g., cpd MW01-022AZ) 1 hour prior to administration of LPS.
Endotoxin-mediated lung injury. LPS (Sigma, St. Louis, Mo.) (10 mg/kg) was administered via intraperitoneal (ip) injection. Animals were allowed to recover for 24 hours prior to determination of lung injury. Control animals received an equivalent volume of sterile saline.
[drawing 161] are shown to be comparatively selective (using assay procedures and data analyses previously described) for inhibition of MLCK and related enzymes such as Rho kinase, and are bioavailable in various other animal models of disease. […] The stimulus in this example was IP injection of 10 mg/kg body weight of the bacterial endotoxin, lipopolysaccharide (LPS). The treatment with MW01-022AZ represents a clinically relevant dose of a kinase inhibitor therapeutic based on prior art with other kinases. Other compositions of this invention, having the structural relationships described and/or illustrated above, can also be employed.
Histologic analysis of lung injury after LPS exposure. […]

[3] abbreviates: Table 6, read-out: Inhibition MLCK.
Setting [4] is: Table 6, read-out: Inhibition KC.

T1 sequence (P11799 935-1906): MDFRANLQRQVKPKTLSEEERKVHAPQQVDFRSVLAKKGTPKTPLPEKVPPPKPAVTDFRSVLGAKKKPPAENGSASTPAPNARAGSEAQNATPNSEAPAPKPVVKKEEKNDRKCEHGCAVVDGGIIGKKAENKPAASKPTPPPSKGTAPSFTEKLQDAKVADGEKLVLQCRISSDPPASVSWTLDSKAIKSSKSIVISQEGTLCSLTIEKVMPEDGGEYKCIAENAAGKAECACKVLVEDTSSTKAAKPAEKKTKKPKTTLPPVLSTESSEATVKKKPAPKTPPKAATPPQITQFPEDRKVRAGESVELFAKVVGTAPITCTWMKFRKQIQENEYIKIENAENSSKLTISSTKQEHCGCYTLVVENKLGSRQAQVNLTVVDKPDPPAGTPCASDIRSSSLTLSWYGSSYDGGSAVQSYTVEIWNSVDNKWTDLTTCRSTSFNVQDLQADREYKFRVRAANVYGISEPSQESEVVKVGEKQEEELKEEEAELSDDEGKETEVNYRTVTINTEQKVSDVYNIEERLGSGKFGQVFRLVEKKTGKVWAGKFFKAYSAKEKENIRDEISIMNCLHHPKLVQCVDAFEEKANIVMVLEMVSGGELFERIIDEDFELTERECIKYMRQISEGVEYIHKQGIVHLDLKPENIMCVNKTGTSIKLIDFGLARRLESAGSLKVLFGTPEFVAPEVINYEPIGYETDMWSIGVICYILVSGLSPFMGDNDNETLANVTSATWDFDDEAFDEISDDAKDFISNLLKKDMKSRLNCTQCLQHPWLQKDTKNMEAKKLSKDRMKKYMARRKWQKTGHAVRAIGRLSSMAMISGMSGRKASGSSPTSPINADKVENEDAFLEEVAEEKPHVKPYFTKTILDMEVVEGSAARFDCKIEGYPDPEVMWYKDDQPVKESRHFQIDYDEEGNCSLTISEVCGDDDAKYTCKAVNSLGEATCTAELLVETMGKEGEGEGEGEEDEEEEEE
T2 sequence (P11275 1-325 limits assumed): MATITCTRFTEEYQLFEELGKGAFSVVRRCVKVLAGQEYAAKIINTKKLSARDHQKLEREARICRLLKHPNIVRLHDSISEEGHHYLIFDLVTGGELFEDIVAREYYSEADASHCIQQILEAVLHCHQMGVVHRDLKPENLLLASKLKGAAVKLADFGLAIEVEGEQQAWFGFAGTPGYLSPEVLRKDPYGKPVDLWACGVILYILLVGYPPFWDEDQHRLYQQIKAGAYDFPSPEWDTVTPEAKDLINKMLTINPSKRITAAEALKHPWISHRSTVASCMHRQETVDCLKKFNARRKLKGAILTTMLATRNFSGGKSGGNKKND
Chain of death associated protein kinase (DAPK) (P53355 whole entry, species assumed): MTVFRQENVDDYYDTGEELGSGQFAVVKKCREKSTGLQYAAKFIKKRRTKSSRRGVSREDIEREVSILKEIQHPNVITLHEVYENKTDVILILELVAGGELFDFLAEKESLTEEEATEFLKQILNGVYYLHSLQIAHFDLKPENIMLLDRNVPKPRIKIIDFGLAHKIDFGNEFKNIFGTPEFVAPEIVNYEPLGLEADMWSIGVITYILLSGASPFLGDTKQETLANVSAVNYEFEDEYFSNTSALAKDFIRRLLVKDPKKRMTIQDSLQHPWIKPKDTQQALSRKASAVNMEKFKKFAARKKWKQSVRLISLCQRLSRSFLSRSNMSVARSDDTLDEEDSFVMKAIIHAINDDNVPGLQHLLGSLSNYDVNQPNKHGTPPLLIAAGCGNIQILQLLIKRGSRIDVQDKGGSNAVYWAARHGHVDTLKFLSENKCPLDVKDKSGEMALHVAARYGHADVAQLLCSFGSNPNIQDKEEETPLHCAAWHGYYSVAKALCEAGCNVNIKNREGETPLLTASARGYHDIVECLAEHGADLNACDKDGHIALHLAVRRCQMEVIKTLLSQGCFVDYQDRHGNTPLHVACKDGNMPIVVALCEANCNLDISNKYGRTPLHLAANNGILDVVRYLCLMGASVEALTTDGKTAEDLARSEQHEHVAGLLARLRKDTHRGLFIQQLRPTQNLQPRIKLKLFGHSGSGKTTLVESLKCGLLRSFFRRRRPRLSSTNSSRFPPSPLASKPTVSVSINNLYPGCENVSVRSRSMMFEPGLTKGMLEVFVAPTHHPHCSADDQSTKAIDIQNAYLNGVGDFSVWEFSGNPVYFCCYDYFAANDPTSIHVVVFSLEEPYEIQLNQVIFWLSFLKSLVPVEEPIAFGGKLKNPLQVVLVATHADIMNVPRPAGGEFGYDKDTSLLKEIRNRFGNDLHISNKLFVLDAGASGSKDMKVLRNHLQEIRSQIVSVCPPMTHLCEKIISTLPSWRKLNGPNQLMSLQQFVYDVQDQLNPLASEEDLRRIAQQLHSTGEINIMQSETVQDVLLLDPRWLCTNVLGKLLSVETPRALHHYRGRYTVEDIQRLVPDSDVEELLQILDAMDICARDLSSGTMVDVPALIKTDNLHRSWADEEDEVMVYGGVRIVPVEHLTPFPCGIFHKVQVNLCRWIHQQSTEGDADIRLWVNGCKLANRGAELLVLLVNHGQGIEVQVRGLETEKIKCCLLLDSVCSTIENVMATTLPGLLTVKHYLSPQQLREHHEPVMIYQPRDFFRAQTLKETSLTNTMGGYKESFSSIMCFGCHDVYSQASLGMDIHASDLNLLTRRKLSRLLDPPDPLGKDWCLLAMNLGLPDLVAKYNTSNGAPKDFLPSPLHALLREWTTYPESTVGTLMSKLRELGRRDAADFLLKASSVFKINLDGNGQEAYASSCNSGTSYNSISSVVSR

In the case of `COc1ccc(S(=O)(=O)N(CCO)c2ccccc2CN(C)C/C=C/c2ccc(Cl)cc2)cc1` [Compound 5, KN93, reference compound], the IC50 in data set [1] (γ-[32P]-ATP, synthetic peptide substrate, mean ± SEM, read-out: IC50 MLCK) is 9.8 ± 0.7 µM; at protein kinase C (PKC) (γ-[32P]-ATP, synthetic peptide substrate, read-out: IC50 PKC), over 100 µM.

Consider `N=c1ccc(-c2ccccc2)nn1CCCCCCCCCCC(=O)Nc1ccc(-c2ccccc2)nn1` [MW01-125AZ], for which the IC50 on CaMKII was over 100 µM; in data set [1] (setting [3]), over 100 µM; on protein kinase C (PKC) (setting [4]), 20 to 50 µM; in data set [2], 20 to 50 µM.

Turning to `N=c1cc2c(nn1CCCCCCCCCCC(=O)Nc1cc3c(nn1)-c1ccccc1CC3)-c1ccccc1CC2` [MW01-055V], the IC50 was under 20 µM in data set [1] (setting [3]), 50 to 100 µM at protein kinase C (PKC) (setting [4]) and 50 to 100 µM in data set [2].

As for `Cc1ccc(=N)n(CCCCCCCCCCC(=O)Nc2ccc(-c3ccccc3)nn2)n1` [MW01-031Z], the IC50 on CaMKII was over 100 µM; in data set [1] (setting [3]), under 20 µM; in data set [2] it was over 100 µM.

As to `N=c1cc2c(nn1CCCCCCCCCCC(=O)Nc1ccc(-c3ccccc3)nn1)-c1ccccc1CC2` [MW01-026Z], the IC50 was over 100 µM on CaMKII, 20 to 50 µM in data set [1] (setting [3]), over 100 µM on protein kinase C (PKC) (setting [4]) and under 20 µM in data set [2]. In addition, the “DAPK inhibitory activity” value in data set [2] (comparison among compounds) is given as “most potent DAPK inhibitor”. Further, the “percent weight loss in the ischemic hemisphere compared to the contralateral hemisphere” value with Wistar rats at P7 (5 mg/kg IP 1 hour after carotid ligation, 7 day recovery to P14, mean±SEM, n=7) was 8.2±5.5%. For the same compound, in the data set with Wistar rats at P7 (5 mg/kg IP, versus vehicle group), the mortality entry is recorded as “no differences in mortality”.

Turning to `N=c1ccc(Cl)nn1CCCCCCCCCCC(=O)Nc1ccc(-c2ccccc2)nn1` [MW01-022AZ], the “LPS-induced lung injury (histology)” value in the data set on WT mice was “no evidence of lung injury; also recorded: close to normal”.
